Data taken from patent US20110028490A1, “4-PHENYL-PIPERAZIN-1-YL-ALKYL-BENZOIMIDAZOL-2-ONE DERIVATIVES AND THEIR USE AS MONOAMINE NEUROT[…]-UPTAKE IN-HIBITORS” (N[…]/S, priority 2008, published 2011).
Where a name gives a salt, the structure may show the parent alone.

Key:
Format in all cases: biochemical
[1] = system: dopamine (DA) reuptake in synaptosomes; experiment: Inhibition of DA reuptake in synaptosomes; conditions: 3H-DA, read-out: DA-uptake IC50
Method: (§1) Compounds were tested for their ability to inhibit the reuptake of the monoamine neurotransmitters dopamine (DA) noradrenaline (NA) and serotonine (5-HT) in synaptosomes as described in WO 97/16451 (NeuroSearch A/S).
(§2) The test values are given as IC50 (the concentration (μM) of the test substance which inhibits the specific binding of ^3H-DA, ^3H-NA, or ^3H-5-HT by 50%).

[2] = system: serotonine (5-HT) reuptake in synaptosomes; experiment: Inhibition of 5-HT reuptake in synaptosomes; conditions: 3H-5-HT, read-out: 5-HT-uptake IC50
Method: as §1, §2

[3] = system: noradrenaline (NA) reuptake in synaptosomes; experiment: Inhibition of NA reuptake in synaptosomes; conditions: 3H-NA, read-out: NA-uptake IC50
Method: as §1, §2

SMILES | IC50 [1] | IC50 [2] | IC50 [3]
O=c1n(CCN2CCN(c3ccc(Cl)cc3)CC2)c2ccccc2n1C1=CCCCC1 [Compound A3, 1-{2-[4-(4-Chloro-phenyl)-piperazin-1-yl]-ethyl}-3-cyclohex-1-enyl-1,3-dihydro-benzoimidazol-2-one fumaric acid salt] | 0.43 µM | 0.022 µM | > 1 µM
C=C(C)n1c(=O)n(CCN2CCN(c3ccc(Cl)c(Cl)c3)CC2)c2ccccc21 [Compound A1, 1-{2-[4-(3,4-Dichloro-phenyl)-piperazin-1-yl]-ethyl}-3-isopropenyl-1,3-dihydro-benzoimidazol-2-one fumaric acid salt] | 1.1 µM | 0.001 µM | 1.07 µM
